In US7229979B2, “Hypoestoxides, derivatives and agonists thereof for use as stent-coating agents” (Immune Modulation, Inc., priority 2003, dated 2007):

System: platelets (arachidonic acid-induced platelet aggregation)
Assay: Arachidonic acid-induced platelet aggregation in platelet-rich plasma
Assay type: cell-based, New Zealand rabbit
Details: 30 μM; arachidonic acid 100 μM; rabbit platelet-rich plasma
Method: The inhibitory effect of hypoestoxides according to the present invention on platelet aggregation was studied. Platelet-rich plasma from a New Zealand rabbit was used as the source of platelets. Arachidonic acid (100 μM) was used to induce maximal platelet aggregation in vitro. Optical density of aggregation was measured by densitometry.

Question: `C=C1C(=O)C[C@H]2C[C@@H]3O[C@@]3(C)CC[C@@H]3O[C@@]3(C)C[C@@H](OC(C)=O)[C@H]1C2(C)C` [Hypoestoxide, hypoestoxide] was tested. Which “% Inhibition of arachidonic acid-induced platelet aggregation” value did it give?
Answer: 100%
